Results: ChEMBL document CHEMBL1201862, “PubChem BioAssay data set” (2004)
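Following 48 hours of exposure in 96-well plates, responses at five concentrations were used to interpolate endpoints linearly. GI50 = concentration required for 50% inhibition of growth.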 The source made the active and inactive calls. Rule as the data show it: active = GI50 up to about 1.1 µM and inactive = higher.

Experiments:
Assay in all cases: growth of human tumour cells (NCI), 48 h
MOLT-4 = system: MOLT-4
OVCAR-4 = system: OVCAR-4
LXFL 529 = system: LXFL 529
TK-10 = system: TK-10
HCT-116 = system: HCT-116
HOP-18 = system: HOP-18
UACC-257 = system: UACC-257
SF-295 = system: SF-295
SK-MEL-28 = system: SK-MEL-28
RPMI-8226 = system: RPMI-8226
RXF 631 = system: RXF 631
NCI-H23 = system: NCI-H23
ACHN = system: ACHN
SK-MEL-2 = system: SK-MEL-2
NCI-H460 = system: NCI-H460
DMS-114 = system: DMS-114
LOX IMVI = system: LOX IMVI
SR = system: SR

Measured: GI50

c1ccc2c(NCCCCCCCCNc3cccc4ccccc34)cccc2c1
inactive: MOLT-4 16.7 µM | OVCAR-4 28.2 µM | LXFL 529 18.6 µM | TK-10 24.3 µM | HCT-116 19.8 µM | HOP-18 20.1 µM | UACC-257 19.8 µM | SF-295 > 100 µM | SK-MEL-28 19.5 µM | RPMI-8226 > 10 µM | RXF 631 18.9 µM | NCI-H23 25.3 µM | ACHN 30 µM | SK-MEL-2 35.8 µM | NCI-H460 21.7 µM | DMS-114 25.6 µM

C=C1C2=C(CCCC2)C(=O)OC12CCCCC2
inactive: MOLT-4 38.5 µM | OVCAR-4 98.2 µM | LXFL 529 40.7 µM | TK-10 > 100 µM | HCT-116 47.1 µM | HOP-18 > 100 µM | UACC-257 52.1 µM | SF-295 57.7 µM | SK-MEL-28 79.4 µM | LOX IMVI 66.4 µM | SR 38.9 µM | RPMI-8226 35.5 µM | RXF 631 72.1 µM | NCI-H23 36.9 µM | ACHN 40.9 µM | SK-MEL-2 70.3 µM | NCI-H460 91.4 µM | DMS-114 29.5 µM
